Data published in patent US8476197B2, “Aminopropenoates as fungicides” (priority 2009, dated 2013).
Marks after values point to notes of the source that are not given here.

Details: pH 2.3
Method: Measurement of logP values was performed according EEC directive 79/831 Annex V.A8 by HPLC (High Performance Liquid Chromatography) on reversed phase columns with the following methods:
^[a] measurement of LC-MS was done at pH 2.7 with 0.1% formic acid in water and with acetonitrile (contains 0.1% formic acid) as eluent with a linear gradient from 10% acetonitrile to 95% acetonitrile. ^[b] Measurement was done at pH 7.5 with 0.005 molar aqueous KH2PO4 buffer and acetonitrile as eluent. ^[c] Measurement was done at pH 2.3 with 0.1% (w/w) phosphoric acid and acetonitrile as eluent.

SMILES | Log P
CON(C)C(=O)C(C#N)=C(NC(C)C(C)C)c1cccnc1Cl (stereo not shown) [Compound 1246] | 2.68

Same assay, conditions: pH 2.7

SMILES | Log P
CCOC(=O)C(C#N)=C(NC(C)COc1ccccc1Cl)c1cccnc1Cl (stereo not shown) [Compound 1164] | 3.78^[a]
CCOC(=O)C(C#N)=C(NC(C)COc1ccc(C)cc1)c1cccnc1Cl (stereo not shown) [Compound 1165] | 3.94^[a]
CCOC(=O)C(C#N)=C(NC(C)COc1ccc(F)cc1)c1cccnc1Cl (stereo not shown) [Compound 1166] | 3.62^[a]
CCOC(=O)C(C#N)=C(NC(C)CCc1ccccc1)c1cccnc1Cl (stereo not shown) [Compound 1167] | 3.92^[a]
CCOC(=O)C(C#N)=C(Nc1ccccc1OC(C)C)c1cccnc1Cl [Compound 1168] | 3.8^[a]
CCOC(=O)C(C#N)=C(Nc1ccc(OC(F)F)cc1)c1cccnc1Cl [Compound 1169] | 3.19^[a]
CCOC(=O)C(C#N)=C(Nc1ccc(SC)cc1)c1cccnc1Cl [Compound 1170] | 3.37^[a]
CCOC(=O)C(C#N)=C(NCc1ccccc1SC)c1cccnc1Cl [Compound 1171] | 3.37^[a]
CCOC(=O)C(C#N)=C(NC(C)COCc1ccccc1Cl)c1cccnc1Cl (stereo not shown) [Compound 1172] | 4.06^[a]
CCOC(=O)C(C#N)=C(NC(C)COc1cccc(OC)c1)c1cccnc1Cl (stereo not shown) [Compound 1173] | 3.58^[a]
CCOC(=O)C(C#N)=C(NC(C)CC)c1cccnc1Cl (stereo not shown) [Compound 1174] | 3^[a]
CCCCCNC(=C(C#N)C(=O)OCC)c1cccnc1Cl [Compound 1175] | 3.53^[a]
C=CCCCC(C=C)NC(=C(C#N)C(=O)OCC)c1cccnc1Cl (stereo not shown) [Compound 1176] | 4.01^[a]
CCOC(=O)C(C#N)=C(NC(C)C1CC2CCC1C2)c1cccnc1Cl (stereo not shown) [Compound 1177] | 4.39^[a]
CCOC(=O)C(C#N)=C(NC(C)COCC(C)(C)C)c1cccnc1Cl (stereo not shown) [Compound 1178] | 4.34^[a]
CCOC(=O)C(C#N)=C(NC(C)COc1c(C)cccc1C)c1cccnc1Cl (stereo not shown) [Compound 1180] | 4.26^[a]
C#CC(C)NC(=C(C#N)C(=O)OCC)c1cccnc1Cl (stereo not shown) [Compound 1181] | 2.66^[a]
CCOC(=O)C(C#N)=C(NC(C)C1(Cl)CC1)c1cccnc1Cl (stereo not shown) [Compound 1182] | 3.33^[a]
CCOC(=O)C(C#N)=C(NCCOC)c1cccnc1Cl [Compound 1183] | 2.17^[a]
CCOC(=O)C(C#N)=C(NCCCCO)c1cccnc1Cl [Compound 1184] | 1.75^[a]
CCOC(=O)C(C#N)=C(NCCC(C)C)c1cccnc1Cl [Compound 1185] | 3.44^[a]

SMILES | Log P
CCOC(=O)C(C#N)=C(NC1CCC1)c1cccnc1Cl [Compound 1186] | 2.92^[a]
CCOC(=O)C(C#N)=C(NC(C)CCCC(C)C)c1cccnc1Cl (stereo not shown) [Compound 1187] | 4.62^[a]
CCCCCC(C)NC(=C(C#N)C(=O)OCC)c1cccnc1Cl (stereo not shown) [Compound 1188] | 4.26^[a]
CCOC(=O)C(C#N)=C(NC1CC1CC)c1cccnc1Cl (stereo not shown) [Compound 1190] | 3.23^[a]
CCOC(=O)C(C#N)=C(NC(C)C1CCC1)c1cccnc1Cl (stereo not shown) [Compound 1191] | 3.55^[a]
CCOC(=O)C(C#N)=C(NC(C)CC(=O)Nc1ccccc1C)c1cccnc1Cl (stereo not shown) [Compound 1192] | 2.8^[a]
CCOC(=O)C(C#N)=C(NC(C)C(=O)Nc1ccc2ccccc2c1)c1cccnc1Cl (stereo not shown) [Compound 1193] | 3.51^[a]
CCOC(=O)C(C#N)=C(NC(C)C(=O)OCC)c1cccnc1Cl (stereo not shown) [Compound 1194] | 2.82^[a]
CCOC(=O)C(C#N)=C(NC(C(=O)OC)c1ccccc1)c1cccnc1Cl (stereo not shown) [Compound 1195] | 3.08^[a]
CCOC(=O)C(C#N)=C(NC(CC(C)C)C(=O)OCC)c1cccnc1Cl (stereo not shown) [Compound 1196] | 3.89^[a]
C=CC(COCc1ccccc1)NC(=C(C#N)C(=O)OCC)c1cccnc1Cl (stereo not shown) [Compound 1197] | 3.8^[a]
CC#CC(C)NC(=C(C#N)C(=O)OCC)c1cccnc1Cl (stereo not shown) [Compound 1198] | 3.02^[a]
CCNC(=O)C(C#N)=C(NC(C)C(C)C)c1cccnc1C#N (stereo not shown) [Compound 1199] | 2.64^[a]
CCNC(=O)C(C#N)=C(NC(C)C(C)C)c1ccnc(Cl)c1Cl (stereo not shown) [Compound 1200] | 3.57^[a]
CCNC(=O)C(C#N)=C(NC(C)c1ccccn1)c1ccnc(Cl)c1Cl (stereo not shown) [Compound 1201] | 2.53^[a]
CCOC(=O)C(C#N)=C(NC(C)C(C)C)c1cn(C)nc1I (stereo not shown) [Compound 1202] | 3.22^[a]
CCOC(=O)C(C#N)=C(NC(C)C(C)C)c1cn(C)nc1C (stereo not shown) [Compound 1203] | 2.8^[a]
CCOC(=O)C(C#N)=C(NC(C)c1ccccn1)c1cn(C)nc1C (stereo not shown) [Compound 1204] | 1.99^[a]
CCOC(=O)C(C#N)=C(NC(C)C(C)C)c1cn(C)nc1CC (stereo not shown) [Compound 1205] | 3.13^[a]
CCOC(=O)C(C#N)=C(NC(C)c1ccccn1)c1cn(C)nc1CC (stereo not shown) [Compound 1206] | 2.25^[a]
CCOC(=O)C(C#N)=C(NC(C)c1ccccn1)c1cn(C)nc1C(C)C (stereo not shown) [Compound 1207] | 2.58^[a]

SMILES | Log P
CCOC(=O)C(C#N)=C(NC(C)C(C)C)c1cn(C)nc1C(C)C (stereo not shown) [Compound 1208] | 3.46^[a]
CCOC(=O)C(C#N)=C(NC(C)C(C)C)c1ccnc(Br)c1Cl (stereo not shown) [Compound 1209] | 3.94^[a]
CCNC(=O)C(C#N)=C(NC(C)C(C)C)c1ccnc(Br)c1Cl (stereo not shown) [Compound 1210] | 3.6^[a]
CCOC(=O)C(C#N)=C(NC(C)C(C)C)c1ccnc(C)c1Cl (stereo not shown) [Compound 1211] | 3.51^[a]
CCOC(=O)C(C#N)=C(NC(C)c1nccs1)c1cn(C)nc1C (stereo not shown) [Compound 1212] | 2.11^[a]
CCOC(=O)C(C#N)=C(NC(C)c1nccs1)c1cn(C)nc1CC (stereo not shown) [Compound 1213] | 2.35^[a]
CCOC(=O)C(C#N)=C(NC(C)c1nccs1)c1cn(C)nc1C(C)C (stereo not shown) [Compound 1214] | 2.62^[a]
CCOC(=O)C(C#N)=C(NC(C)(C)c1ccc(Cl)cc1)c1cn(C)nc1C(F)F [Compound 1215] | 3.71^[a]
CCOC(=O)C(C#N)=C(Nc1ccccc1Cl)c1cn(C)nc1C(F)F [Compound 1216] | 3.15^[a]
CCOC(=O)C(C#N)=C(Nc1ccc(C#N)cc1)c1cn(C)nc1C(F)F [Compound 1217] | 2.64^[a]
CCOC(=O)C(C#N)=C(NC(C#N)c1ccccc1Br)c1cn(C)nc1C(F)F (stereo not shown) [Compound 1218] | 3.13^[a]
CCOC(=O)C(C#N)=C(NC(C#N)c1cccc(Cl)c1Cl)c1cn(C)nc1C(F)F (stereo not shown) [Compound 1219] | 3.44^[a]
C#CCC(C#N)NC(=C(C#N)C(=O)OCC)c1cn(C)nc1C(F)F (stereo not shown) [Compound 1220] | 2.33^[a]
CCOC(=O)C(C#N)=C(NC(C#N)Cc1ccccc1)c1cn(C)nc1C(F)F (stereo not shown) [Compound 1221] | 2.98^[a]
CCOC(=O)C(C#N)=C(NC(c1ccc(Cl)cc1)C(F)(F)F)c1cn(C)nc1C(F)F (stereo not shown) [Compound 1222] | 4.01^[a]
CCOC(=O)C(C#N)=C(NC(Cc1ncccc1C)C(F)(F)F)c1cn(C)nc1C(F)F (stereo not shown) [Compound 1223] | 2.94^[a]
CCOC(=O)C(C#N)=C(NC(c1ccccc1)C(F)(F)F)c1cn(C)nc1C(F)F (stereo not shown) [Compound 1224] | 3.55^[a]
CCOC(=O)C(C#N)=C(NC(C)c1cccc(OC)c1)c1cn(C)nc1C(F)F (stereo not shown) [Compound 1225] | 3.21^[a]
CCOC(=O)C(C#N)=C(Nc1ccccc1C(=O)C1CC1)c1cn(C)nc1C(F)F [Compound 1226] | 3^[a]
CCOC(=O)C(C#N)=C(Nc1ccccc1OC(F)(F)F)c1cn(C)nc1C(F)F [Compound 1227] | 3.42^[a]
CCOC(=O)C(C#N)=C(Nc1ccccc1SCC)c1cn(C)nc1C(F)F [Compound 1228] | 3.46^[a]

SMILES | Log P
CCOC(=O)C(C#N)=C(NC(C)(C)c1ccc(OC)cc1)c1cn(C)nc1C(F)F [Compound 1229] | 3.35^[a]
CCOC(=O)C(C#N)=C(NC(C#N)c1ccccc1)c1cn(C)nc1C(F)F (stereo not shown) [Compound 1230] | 2.94^[a]
CCOC(=O)C(C#N)=C(NC(C#N)c1ccc(Cl)cc1Cl)c1cn(C)nc1C(F)F (stereo not shown) [Compound 1231] | 3.55^[a]
CCOC(=O)C(C#N)=C(NC(C#N)c1cnn(-c2ccccc2)c1)c1cn(C)nc1C(F)F (stereo not shown) [Compound 1232] | 3.15^[a]
CCOC(=O)C(C#N)=C(NC(C)COCc1ccc(C(F)(F)F)cc1)c1cn(C)nc1C(F)F (stereo not shown) [Compound 1233] | 3.99^[a]
CCOC(=O)C(C#N)=C(NC(C)CSc1ccc(Cl)cc1)c1cn(C)nc1C(F)F (stereo not shown) [Compound 1234] | 3.87^[a]
CCOC(=O)C(C#N)=C(NC(C)(C)C#Cc1ccc(C#N)cc1)c1cn(C)nc1C(F)F [Compound 1238] | 3.69^[a]
CCNC(=O)C(C#N)=C(NC(C)C(C)C)c1ccnc(C)c1Cl (stereo not shown) [Compound 1249] | 3.08^[a]
CCOC(=O)C(C#N)=C(NCC(N)=O)c1cn(C)nc1C(F)F [Compound 1255] | 2.1^[a]
CCOC(=O)C(C#N)=C(Nc1ccccc1Cl)c1cccnc1Cl [Compound 1263] | 3.35^[a]
CCOC(=O)C(C#N)=C(Nc1ccc(N(C)C)cc1)c1cccnc1Cl [Compound 1264] | 3.17^[a]
CCOC(=O)C(C#N)=C(Nc1ccc(C#N)cc1)c1cccnc1Cl [Compound 1265] | 2.73^[a]
CCOC(=O)C(C#N)=C(Nc1cccc(SC)c1)c1cccnc1Cl [Compound 1266] | 3.42^[a]
CCOC(=O)C(C#N)=C(NC(C)(C)C#Cc1ccc(C)cc1)c1cccnc1Cl [Compound 1268] | 4.41^[a]
CCOC(=O)C(C#N)=C(Nc1ccc2ncsc2c1)c1cccnc1Cl [Compound 1269] | 2.54^[a]
CCOC(=O)C(C#N)=C(NC(C)(C)C=C(Cl)Cl)c1cccnc1Cl [Compound 1271] | 3.55^[a]
CCOC(=O)C(C#N)=C(NC(C)(C)C#Cc1ccc(C#N)cc1)c1cccnc1Cl [Compound 1272] | 3.67^[a]
CCOC(=O)C(C#N)=C(NC(C)(C)C(C)(C)C)c1cccnc1Cl [Compound 1273] | 3.8^[a]
CCOC(=O)C(C#N)=C(NC(C)(C)C(=O)OC)c1cccnc1Cl [Compound 1274] | 2.66^[a]
CC#CC1(NC(=C(C#N)C(=O)OCC)c2cccnc2Cl)CCCC1 [Compound 1275] | 3.69^[a]

Same assay, conditions: pH 7.5

SMILES | Log P
CON(C)C(=O)C(C#N)=C(NC(C)C(C)C)c1cccnc1Cl (stereo not shown) [Compound 1246] | 2.67
